These results are taken from PubChem BioAssay (NCI).

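Growth conditions: 96-well plates. Treatment: test compound, 48 hours, 5 concentrations. Analysis: linear interpolation between bracketing concentrations; unreached endpoints set to highest concentration. Definition used: TGI = concentration required for complete inhibition of growth.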

Some test systems named below: K-562 leukemia; DU-145 prostate; HT29 colon; HCT-15 colon; MDA-MB-435; IGROV1 ovarian; 786-0 renal; ACHN renal; M14 melanoma; SK-MEL-2 melanoma; HOP-62 NSCLC; SF-539 CNS; BT-549 breast; MALME-3M melanoma.
Common to all, as to assay: DTP human tumour cell line panel, 48 h

Consider `COc1cc(-c2c[nH]c3ccccc23)nc(-c2c[nH]c3ccccc23)n1`, for which the TGI in the test with K-562 leukemia is 17.7 µM; in the test on DU-145 prostate, 23.9 µM; in the test on HT29 colon it was 13.4 µM; in the test on HCT-15 colon, 22.3 µM; in the test on MDA-MB-435, 18.6 µM; with IGROV1 ovarian, 13.6 µM. For the same molecule, the TGI with 786-0 renal is 4.67 µM; with ACHN renal, 8.46 µM; with M14 melanoma it was 14.8 µM; in the test on SK-MEL-2 melanoma, 16.2 µM; with HOP-62 NSCLC it was 21 µM; in the test with SF-539 CNS, 19.8 µM. In the test with BT-549 breast, this molecule registered a total growth inhibition concentration (TGI) of 38.4 µM.
Take `CCCCCCCCCCCCCCCCOP(=O)(O)OP(=O)(O)OCC1OC(n2ccc(N)nc2=O)CC1O` (stereo unspecified): the TGI in the test with K-562 leukemia, with HT29 colon, in the test on HCT-15 colon, in the test on MDA-MB-435, in the test on IGROV1 ovarian and with 786-0 renal was greater than 100 µM throughout. Moreover, the TGI in the test on ACHN renal, in the test on M14 melanoma, in the test on SK-MEL-2 melanoma, with HOP-62 NSCLC, with SF-539 CNS and with BT-549 breast was greater than 100 µM each time. In addition, the concentration for total growth inhibition (TGI) in the test on MALME-3M melanoma was greater than 100 µM.
With `CCOC(=O)CSc1nc(-c2ccc(OC)cc2)c(C#N)c(=O)[nH]1`, the total growth inhibition concentration (TGI) in the test on K-562 leukemia, in the test with DU-145 prostate, in the test with HT29 colon, with HCT-15 colon, in the test on MDA-MB-435 and in the test with IGROV1 ovarian was greater than 100 µM each time. Besides, the total growth inhibition concentration (TGI) in the test with 786-0 renal, in the test on ACHN renal, with M14 melanoma, in the test on SK-MEL-2 melanoma, in the test on HOP-62 NSCLC and with SF-539 CNS was greater than 100 µM each time. The total growth inhibition concentration (TGI) with BT-549 breast was greater than 100 µM.
Take `O=C(O)C(Cc1ccc(O)cn1)NC(=O)C(F)(F)F` (stereo unspecified): the TGI in the test on K-562 leukemia, with DU-145 prostate, in the test with HT29 colon, in the test on HCT-15 colon, in the test with MDA-MB-435 and in the test on IGROV1 ovarian was greater than 100 µM in each case. Moreover, the concentration for total growth inhibition (TGI) in the test on 786-0 renal, in the test on ACHN renal, in the test with HOP-62 NSCLC, in the test with SF-539 CNS, with BT-549 breast and with MALME-3M melanoma was greater than 100 µM throughout.
On to `NC(=O)/N=C(\N)NC(=O)c1ccccc1`, for which the TGI in the test with K-562 leukemia, in the test on DU-145 prostate, with HT29 colon, in the test on HCT-15 colon, with MDA-MB-435 and in the test on IGROV1 ovarian was greater than 100 µM in each case. Also, the TGI in the test with 786-0 renal, with ACHN renal, with M14 melanoma, in the test on SK-MEL-2 melanoma, with HOP-62 NSCLC and with BT-549 breast was greater than 100 µM in each case. In addition, in the test with MALME-3M melanoma, the TGI is greater than 100 µM.
With `COC(=O)CCc1ccc2c(c1)CCC2`, the TGI with DU-145 prostate, in the test with HT29 colon, in the test on HCT-15 colon, in the test on MDA-MB-435, in the test with IGROV1 ovarian and in the test with 786-0 renal was greater than 100 µM throughout. Further, the TGI in the test on ACHN renal, in the test with M14 melanoma, with SK-MEL-2 melanoma, in the test with HOP-62 NSCLC, in the test with SF-539 CNS and in the test on BT-549 breast was greater than 100 µM each time. In the test with MALME-3M melanoma, this molecule came in with a TGI greater than 100 µM.
Consider `O=C(CCl)N1CCCCC1C1(c2cc3ccccc3[nH]2)OCCO1` (stereo unspecified), for which the total growth inhibition concentration (TGI) in the test with K-562 leukemia is 15.9 µM; in the test on DU-145 prostate it was 9.89 µM; in the test on HT29 colon it was 17.6 µM; with HCT-15 colon, 33.9 µM; in the test on MDA-MB-435, 17.8 µM; with IGROV1 ovarian, 0.558 µM. For the same molecule, the TGI in the test with ACHN renal is 13.9 µM; with M14 melanoma, 13.6 µM; with SK-MEL-2 melanoma, 20.2 µM; with HOP-62 NSCLC, 20.6 µM; in the test with SF-539 CNS it was 4.51 µM; in the test on BT-549 breast it was 6.83 µM. This molecule had a TGI with MALME-3M melanoma of 14.5 µM.
For `O=C1CC2[C@@H](N3CCCC3)CCC(N1Cc1ccccc1)C2(O)O` (stereo partly specified), the total growth inhibition concentration (TGI) in the test on K-562 leukemia, with DU-145 prostate, in the test on HT29 colon, in the test with HCT-15 colon, with MDA-MB-435 and in the test on IGROV1 ovarian was greater than 100 µM each time. The TGI in the test on 786-0 renal, with ACHN renal, in the test with M14 melanoma, in the test on HOP-62 NSCLC, in the test with SF-539 CNS and in the test with BT-549 breast was greater than 100 µM each time. For the same molecule, in the test with MALME-3M melanoma, the total growth inhibition concentration (TGI) is greater than 100 µM.
As for `CC(=O)OCC1OC(n2c(C)c(N=Nc3ccc(C)cc3)c(C)c(C#N)c2=S)C(OC(C)=O)C(OC(C)=O)C1OC(C)=O` (stereo unspecified), the total growth inhibition concentration (TGI) with K-562 leukemia was greater than 100 µM; in the test on DU-145 prostate, greater than 100 µM; in the test with HT29 colon, greater than 100 µM; with MDA-MB-435 it was greater than 100 µM; with IGROV1 ovarian it was greater than 100 µM; in the test with 786-0 renal, 72.4 µM. For the same molecule, the concentration for total growth inhibition (TGI) with ACHN renal, in the test with M14 melanoma, with HOP-62 NSCLC, in the test with SF-539 CNS, with BT-549 breast and in the test on MALME-3M melanoma was greater than 100 µM in each case.
As for `COC(=O)c1cc(C#N)[nH]c1-c1ccsc1`, the total growth inhibition concentration (TGI) in the test with K-562 leukemia, in the test with DU-145 prostate, in the test with HT29 colon, in the test on HCT-15 colon, in the test with MDA-MB-435 and in the test on IGROV1 ovarian was greater than 100 µM throughout. The total growth inhibition concentration (TGI) in the test with 786-0 renal, with ACHN renal, in the test with M14 melanoma, in the test with SK-MEL-2 melanoma, in the test with HOP-62 NSCLC and in the test with BT-549 breast was greater than 100 µM each time. Moreover, the TGI in the test with MALME-3M melanoma is greater than 100 µM.
Regarding `O=C(OCc1ccccc1)N1CCNCCNCC1`, the total growth inhibition concentration (TGI) in the test on K-562 leukemia, in the test with DU-145 prostate, in the test on HT29 colon, in the test with HCT-15 colon, in the test on MDA-MB-435 and with IGROV1 ovarian was greater than 100 µM in each case. For the same molecule, the concentration for total growth inhibition (TGI) with 786-0 renal, in the test on ACHN renal, in the test with M14 melanoma, with SK-MEL-2 melanoma, in the test with HOP-62 NSCLC and in the test with SF-539 CNS was greater than 100 µM throughout. The molecule further registered a concentration for total growth inhibition (TGI) in the test on BT-549 breast greater than 100 µM.
